According to patent US12390423B2 (priority 2019, dated 2025):
Entries after “also recorded” stand apart in the source; their conditions may differ.

Legend:
[1] = Avocatin B oral consumption pilot clinical study (Phase I, NCT03898505)
Method: A single center, double-blind, placebo-controlled, randomized, pilot clinical study was executed to determine the safety of consuming 50 mg (equivalent to consuming a quarter Hass avocado pulp) or 200 mg (equivalent to consuming one Hass avocado pulp) AvoB per day for 60 days in healthy human participants (NCT03898505).
The investigational product was approved by Health Canada (natural product number (NPN) 80074296). To create the product, freeze-dried avocado pulp powder was sourced from Avocado Oil New Zealand Ltd., (Tauranga, New Zealand) and tested for absolute quantities of AvoB per gram of powder using a validated analytical method^61. Clinical trial material was then standardized to contain low dose (50 mg) or high dose (200 mg) AvoB (FIG. 9). The placebo product was formulated similarly to the investigational product except it only contained the non-medicinal food-grade ingredients used in the test product and other excipients that were used to simulate appearance, smell, texture and taste of the investigational product. Participants in every group consumed 40 g of material per day for 60 days by dissolving/blending the product in 12-16 ounces of a smoothie like diluent (e.g., milk (with or without lactose), soy milk, coconut milk, or fruit juice of the participant's choice). All three products were approximately matched for total calories per serving.
Healthy volunteers (13 males and 17 females; age range 20-54 years, BMI range 19.1-29.9) were enrolled in the study. Exclusion criteria were: presence of active clinical disease and history of diabetes, hypertension, dyslipidemia, major depressive disorders, chronic liver disorders, kidney disorders, or blood disorders. […] Primary outcome was the analysis of adverse experiences (AEs) measured throughout the study. Secondary outcomes were to ascertain safety and tolerability which were assessed through clinically relevant changes in standard laboratory evaluations (blood chemistry and hematology) measured on days 0, 30 and 60. Body mass index (BMI) and glycated hemoglobin (HbA1c) were also measured as part of secondary outcomes. […]
Mean change from baseline at day 30 and 60 for all laboratory evaluations and body weight were analysed by the non-parametric Kruskal-Wallis—One-Way Analysis of Variance on Ranks. using GraphPad Prism 6.0 (GraphPad Software, USA) where differences with p<0.05 were considered to be statistically significant. AEs were tabulated (for all randomized patients who received at least one dose of study supplements) and analyzed using Fisher's exact test of independence in Statistical Analysis System (SAS) university edition where differences with p<0.05 were considered to be statistically significant.

INS-1 (832/13) cells [2] = assay: Cytosolic calcium determination (fluo-3AM) in INS-1 (832/13) cells; assay type: cell-based, rat; conditions: 0.5 mM palmitate, non-stimulatory glucose, AvoB 25 μM, ETO 100 μM, TMB-8 10 μM
Method: INS-1 (832/13) cells were treated as described for the FAO assays but also with metabolic modulators dichloroacetate (DCA) (1 mM) and trimetazidine (25 μM) as well as 10 μM endoplasmic reticulum calcium blocker 8-(N,N-Diethylamino)-octyl-3,4,5-trimethoxybenzoate HCl (TMB-8) (Sigma Aldrich) or 25 nM cyclosporin (Sigma Aldrich) in the presence of 0.5 mM palmitate/1 mM L-carnitine. Cytosolic calcium was measured in INS-1 (832/13) cells using fluo-3AM (Invitrogen, F1241) charged fluorescent dye that accumulates in the cytosol and emits green fluorescence after binding calcium ions. A stock solution of 10 mM fluo-3AM was diluted to 5 μM in fluo-3AM loading buffer (10 mM 4-(2-hydroxyethyl)-1-piperazineethanesulfonic acid (HEPES), 137 mM NaCl, […], 1 mM Na2HPO4, 5 mM glucose, and 0.5 mM MgCl2 (pH 7.4)]. After treatment, cells were incubated in fluo-3AM loading buffer for 30 min at 37° C. with gentle agitation after which cells were washed twice with PBS, trypsinized and collected for flow cytometry analysis. Cytosolic calcium was quantified by taking the mean green fluorescence values of live gated cells and normalizing to vehicle control.

INS-1 (832/13) cells [3] = assay: Fatty acid oxidation ([1-14C]-palmitate) in INS-1 (832/13) cells; assay type: cell-based, rat; conditions: 25 μM AvoB, 0.5 mM palmitate-BSA/1 mM L-carnitine, 24 h
Method: FAO in cell lines was determined using established methods. […] [1-^14C]-palmitate was prepared and applied to cells as follows: purchased stock supplied in ethanol (PerkinElmer, MA, USA) was dried in vacuo and then re-suspended in a solution containing unlabeled carrier in BSA to yield a mixture of 7% BSA [w/v], 2.5 mM palmitate with [1-^14C]-palmitate at a final concentration of 10 μCi/mL. Following a 16 hour incubation at 37° C., the solution containing radiolabeled palmitate was diluted with respective serum free cell culture media (low glucose RPMI media for INS-1 (832/13) cells and low glucose DMEM for C2C12 myotubes) containing 1 mM L-carnitine to a final concentration of 0.3% BSA, 100 μM palmitate, and 0.4 μCi/mL [1-^14C]-palmitate. Following incubation of treated cells with [1-^14C]-palmitate, 400 μL of well media was transferred to acidification vials containing perchloric acid and capped with CO2 filter traps impregnated with 1M NaOH. […] The CO2 trap was transferred to scintillation vials containing 4 mL of scintillation fluid and complete FAO was quantified using a Tri-Carb 2910 TR liquid scintillation analyzer (PerkinElmer). The amount of radioactivity in the media was also determined after pelleting cells and debris (14,000×g, 10 min); this quantified acid soluble metabolites (ASMs), an indirect measure of incomplete FAO.

[4] = test system: AMPK activation and mitochondrial biogenesis; assay: Immunoblotting (pAMPKα, PGC-1α) and NAO mitochondrial mass in INS-1 (832/13) cells; assay type: cell-based, rat; conditions: 25 μM AvoB, 24 h
Method: For all ROS studies, INS-1 (832/13) cells and C2C12 myotubes were treated with or without palmitate and FAO inhibitors for 24 h in low glucose cell culture media as described for the FAO assay. After treatment, cells were trypsinized and re-suspended in PBS containing 5 μM of the fluorescent dye MitoSOX® (Molecular Probes, Invitrogen) and allowed to incubate for 5-15 minutes in a humidified atmosphere containing 5% CO2 at 37° C. Cells were then washed in PBS, placed in a 96 well plate and fluorescence was measured by flow cytometry. ROS was quantified by normalizing the mean fluorescence values of live gated cells to vehicle control. Mitochondrial membrane potential (MMP) in INS-1 (832/13) and C2C12 myotubes was measured using the cationic fluorescent dye JC-1 (Molecular Probes). […] JC-1 fluoresces green in the cytosol where it exists as a monomer, after entering the mitochondria JC-1 monomers form J aggregates and fluoresce red, thus the red/green fluorescence ratio is used to determine MMP. […] Cells were then washed in PBS, placed in a 96 well plate and fluorescence was measured by flow cytometry. MMP was quantified by normalizing the mean fluorescence values of live gated cells to vehicle control. […] Cells were treated, washed and collected as described and incubated with 0.35 μM NAO and green fluorescence was measured using flow cytometry. […]

## avocatin B [AvoB]
[1]; both AvoB supplemented groups relative to placebo, trend, not statistically significant (p=0.10)
  Body weight change between baseline and day 30: decreases in body weight
[1]; either AvoB treated group compared to placebo
  Change from baseline in body mass index or glycated hemoglobin (HbA1c): No clinically relevant changes from baseline
[1]; healthy human participants, 50 or 200 mg AvoB/day for 60 days
  Overall tolerability / toxicity (adverse events): generally well-tolerated; also recorded: exerted no toxicity
INS-1 (832/13) cells [2]
  Cytosolic Ca2+ (Fluo-3AM): able to reduce cytosolic Ca^2+
INS-1 (832/13) cells [3]
  Complete FAO ([1-14C]-palmitate oxidation to CO2): inhibited complete FAO
[4]
  AMPK activation (pAMPKα-Thr172): independent of AMP-activated protein kinase (AMPK) activation
  Mitochondrial biogenesis (PGC-1α protein, NAO dye): independent
